Experimental data from patent US4673684A, “Amide derivatives and 5-lipoxygenase inhibitors containing the same as an active ingredient” (Terumo Corporation, priority 1984, dated 1987).
pIC50: −log10 of the molar value.

What follows are molecules tested against T1, 5-lipoxygenase (Mus musculus, UniProt P48999) (assay: 5-Lipoxygenase-inhibiting Activity (decrease in 5-HETE and LTB4 formed from radiolabelled arachidonic acid, enzyme solution from mouse mastcytoma cells P-815)). Conditions: not given.
T1 construct: The supernatant is used as a 5-lipogenase enzyme solution; endogenous in cells
T1 sequence (P48999 1-674): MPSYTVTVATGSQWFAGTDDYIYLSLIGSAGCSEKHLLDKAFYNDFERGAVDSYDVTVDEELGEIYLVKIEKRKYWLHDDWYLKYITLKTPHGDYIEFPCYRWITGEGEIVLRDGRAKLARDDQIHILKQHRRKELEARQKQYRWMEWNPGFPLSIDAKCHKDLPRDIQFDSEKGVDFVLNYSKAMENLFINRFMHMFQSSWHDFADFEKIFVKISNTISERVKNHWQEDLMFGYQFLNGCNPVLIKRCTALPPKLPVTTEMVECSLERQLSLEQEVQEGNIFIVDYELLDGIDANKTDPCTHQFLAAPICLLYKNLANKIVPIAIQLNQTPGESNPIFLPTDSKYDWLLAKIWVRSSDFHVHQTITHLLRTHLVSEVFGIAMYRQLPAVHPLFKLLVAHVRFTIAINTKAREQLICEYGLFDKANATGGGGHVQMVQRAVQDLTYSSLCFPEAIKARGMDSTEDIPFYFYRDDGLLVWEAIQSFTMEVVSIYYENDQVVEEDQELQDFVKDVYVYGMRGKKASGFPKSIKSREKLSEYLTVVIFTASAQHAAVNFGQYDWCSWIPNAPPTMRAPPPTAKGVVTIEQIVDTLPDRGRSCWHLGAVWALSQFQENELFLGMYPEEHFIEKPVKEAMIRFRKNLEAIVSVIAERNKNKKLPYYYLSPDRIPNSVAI
Type: biochemical
Description: Mouse mastcytoma cells P-815 are diluted in a culture solution, containing 90% Eagle Basic Medium (manufactured by Gibco Laboratories) to 5×10^4 cells/ml. The diluted solution is cultivated with shaking in air at 37° C. for 48 hours. Then, the culture solution is cooled with ice and centrifuged to collect the cells. The cells are suspended in a phosphate buffer solution at pH 7.4 at a concentration of 2×10^7 cells/ml. The suspension is treated in a ultrasonic cell disintegrater and then centrifuged at 10,000 r.p.m. for 10 min. The supernatant is used as a 5-lipogenase enzyme solution. In test tubes are placed 20 μl of radiolabelled arachidonic acid ([…]), indomethacin (2×10^-8 mol) and an amide derivative to be tested, respectively. To each of the test tubes are added 0.45 ml of a phosphate buffer solution, 0.45 ml of the above-prepared suspension, 0.45 ml of the above-prepared enzyme solution and 0.1 ml of 8 mM CaCl2 (calcium chloride). The mixture is reacted at 37° C. for 5 min. After cooled with ice, 60 μl of 1N-HCl (hydrochloric acid is added to the reaction mixture, which is then extracted with 8 ml of ethyl acetate. The extract is concentrated, and the concentrate is developed by spotting on a silica gel thin layer plate (Merck 60F 254). Measurement of the inhibitory activity is made by collecting fractions corresponding to lipoxygenase products 5-HETE (5(s)-hydroxy-6,8,11,14-eicosatetraenic acid) and LTB4 (leucotriene B4) and determining the radioactivity by a liquid scintillation counter. The lipoxygenase inhibiting activity is determined by decrease in the amount of the above-mentioned 5-lipoxygenaseproducts. […] 50% inhibitory concentration or 30% inhibitory concentration as indicated in the table means the concentration of an amide derivative required for reducing the amount of the above-mentioned 5-lipoxygenase products (5-HETE and LTB4) to 50% or 30% of the amount when the amount of 5-HETE and LTB4 produced in the absenced of the amide derivative is 100%.

SMILES | pIC50
COc1ccc(/C=C/C(=O)N2CCN(CCOC(c3ccccc3)c3ccccc3)CC2)cc1OC [Example 76, N-[3-(3,4-dimethoxyphenyl) -2-propenoyl]-N'-(2-benzhydroxyethyl)piperazine] | 4.70
COc1cc(/C=C/C(=O)N2CCN(CCOC(c3ccccc3)c3ccccc3)CC2)cc(OC)c1O [Example 79, N-[3-(3,5-dimethoxy-4-hydroxyphenyl) -2-propenoyl]-N'-(2-benzhydroxyethyl)piperazine] | 7.40
O=C(/C=C/C=C/c1ccc(O)c(O)c1)N1CCN(CCOC(c2ccccc2)c2ccccc2)CC1 [Example 84, N-[5-(3,4-dihydroxyphenyl)-2,4-pentadienoyl]--N'-(2-benzhydroxyethyl)piperazine] | 7.52

Same assay, conditions: 5-HETE and LTB4 formation; mouse mastcytoma P-815 enzyme solution; 37° C., 5 min; pH 7.4; with indomethacin; read-out: 50% Inhibitory concentration IC50

SMILES | pIC50
COc1cc(/C=C/C(=O)N2CCN(CCCOC(c3ccccc3)c3ccccc3)CC2)ccc1O [Example 71, N-[3-(3-methoxy-4-hydroxy)phenyl-2-propenoyl]-(3-benzhydroxypropyl)piperazine] | 6.22
COc1cc(/C=C/C(=O)NCCOC(c2ccccc2)c2ccccc2)ccc1O [Example 72, 2-[3-(3-methoxy-4-hydroxy)phenyl-2-propenoyl]aminoethyl benzhydryl ether] | 6.05
COc1cc(/C=C/C(=O)NCCCOC(c2ccccc2)c2ccccc2)ccc1O [Example 73, 3-[3-[3-methoxy-4-hydroxyphenyl)-2-propenoyl]aminopropyl benzhydryl ether] | 6.15
COc1ccc(/C=C/C(=O)NCCCCN2CCN(C(c3ccccc3)c3ccccc3)CC2)cc1OC [Example 74, N-[4-[3-(3,4-dimethoxyphenyl)-2-propenoyl]aminobutyl]-N'-benzhydrylpiperazine] | 5.10
COc1ccc(/C=C/C(=O)NCCn2cnc3c2c(=O)n(C)c(=O)n3C)cc1OC [Example 75, 7-[2-[3-(3,4-dimethoxyphenyl) -2-porpenoyl]aminoethyl]theophylline] | 4.70
COc1ccc(/C=C/C(=O)NCCOC(c2ccccc2)c2ccccc2)cc1OC [Example 77, 2-[3-(3,4-dimethoxyphenyl)-2-propenoyl]aminoethyl benzhydryl ether] | 5.00
COc1cc(/C=C/C(=O)NCCCCN2CCN(C(c3ccccc3)c3ccccc3)CC2)cc(OC)c1O [Example 78, N-benzyhdryl-N'-3-(3,5-dimethoxy-4-hydroxy)phenyl-2-propenoylaminobutylpiperazine] | 7.52
COc1cc(/C=C/C(=O)N2CCN(CCCOC(c3ccccc3)c3ccccc3)CC2)cc(OC)c1O [Example 80, N-[3-(3,5-dimethoxy-4-hydroxyphenyl) 2-propenoyl]-N'-(3-benzhydroxypropyl)piperazine] | 7.52
COc1cc(/C=C/C(=O)NCCOC(c2ccccc2)c2ccccc2)cc(OC)c1O [Example 81, 2-[3-(3,5-dimethoxy-4-hydroxy]phenyl-2-propenoyl) aminoethyl benzhydryl ether] | 7.30
O=C(/C=C/C=C/c1ccc(O)c(O)c1)NCCCCN1CCN(C(c2ccccc2)c2ccc(Cl)cc2)CC1 (centres unmarked) [Example 82, N-(p-chlorobenzhydryl)-N'-[4-[5-(3,4-dihydreoxyphenyl) -2,4-pentadienoyl]aminobutyl]piperazine] | 7.70
O=C(/C=C/C=C/c1ccc(O)c(O)c1)NCCCCN1CCN(C(c2ccccc2)c2ccccc2)CC1 [Example 83, N-benzhydryl-N'-5-(3,4-dihydroxyphenyl)-2,4-pentadienoylaminobutylpiperazine] | 7.40
O=C(/C=C/C=C/c1ccc(O)c(O)c1)N1CCN(CCCOC(c2ccccc2)c2ccccc2)CC1 [Example 85, N-[5,[3,4-hydroxyphenyl]-2,4-pentadienoyl]-N'-(3-benzhydroxypropyl)piperazine] | 7.52
COc1cc(/C=C/C=C/C(=O)NCCCCN2CCN(C(c3ccccc3)c3ccc(Cl)cc3)CC2)ccc1O (centres unmarked) [Example 86] | 7.40
COc1cc(/C=C/C=C/C(=O)NCCCCN2CCN(C(c3ccccc3)c3ccccc3)CC2)ccc1O [Example 87, N-benzhydryl-N'-[4-[5-(3-methoxy-4-hydroxyphenyl)-2,4-pentadienoyl]aminobutyl]piperzine] | 7.22
